Values quoted from earlier work, collected in US20060089343A1, “Superoxide dismutase mimics for the treatment of ocular disorders and diseases” (ALCON, INC., priority 2002, published 2006).

What was measured:
IL-6 and MIP-2 = conditions: administration after induction of cerebral ischemia
[1] = diabetic rats
[2] = diabetogenic T-cell clone
[3] = albino rats
[4] = given either before or after induction of cerebral ischemia

**Q.** For `CCn1cc[n+](CC)c1C1=C2C=CC3=[N+]2[Mn]24[n]5c1ccc5C(c1n(CC)cc[n+]1CC)=C1C=CC(=[N+]12)C(c1n(CC)cc[n+]1CC)=c1ccc([n]14)=C3c1n(CC)cc[n+]1CC` [Compound 1], which “expression of pro-inflammatory proteins, such as IL-6 and MIP-2” value (IL-6 and MIP-2) is on record?
**A.** attenuation of the increased expression

**Q.** For `[Cl-].[Cl-].[Mn+2].c1cc2nc(c1)CN[C@@H]1CCCC[C@H]1NCCN[C@@H]1CCCC[C@H]1NC2` [Compound M40403], which “vascular and neural dysfunction” value [1] is on record?
**A.** prevented vascular and neural dysfunction

**Q.** With `CCN1C=CC=C/C1=C1/C2=NC(=C(c3cccc[n+]3CC)C3=NC(=C(c4cccc[n+]4CC)c4ccc([n-]4)C(c4cccc[n+]4CC)=C4C=CC1=N4)C=C3)C=C2.[Cl-].[Cl-].[Cl-].[Cl-].[Cl-].[Mn+3]` [AEOL10113] as the compound, how does the onset of diabetes [2] read?
**A.** delay the onset of diabetes

**Q.** With `CC1(C)CC(O)CC(C)(C)N1[O]` [4-hydroxy-2,2,6,6-tetramethylpiperidine-1-oxyl] as the compound, how does the light-induced retinal damage [3] read?
**A.** inhibited light-induced retinal damage

**Q.** For `CC[n+]1ccccc1C1=C2C=CC3=[N+]2[Mn]24[n]5c1ccc5C(c1cccc[n+]1CC)=C1C=CC(=[N+]12)C(c1cccc[n+]1CC)=c1ccc([n]14)=C3c1cccc[n+]1CC` [Compound 2], which infarct volume [4] is on record?
**A.** reduces infarct volume
